# Activity calls are given as the source filed them. For most assays here, no stated cut-off is given here; in the data, actives have a measured EC50 and inactives only a lower limit.
# Experiments:
# [1] = molecular target: FAD-linked sulfhydryl oxidase ALR (Homo sapiens, UniProt P55789); test: ALR-catalysed DTT oxidation blockers – biochemical, H2O2 detection, luminescence, cherry-pick, dose response (AID 493248)
# Cytochrome P450 2C9 = Cytochrome P450 2C9 (Homo sapiens, UniProt P11712)
# cells [2] = assay type: functional, cell-based
# cells [3] = assay type: functional, cell-based; remark: listed apart in the source
# [4] = NIH-3T3 fibroblast cytotoxicity, dose response, cytotoxicity control, cell-based, fluorescence, Alamar Blue, secondary assay (AID 2327); assay type: functional;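 further: NIH-3T3 mouse fibroblasts cultured with fluconazole at 8 µg/mL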
# [5] = fluconazole-exposed Candida albicans growth modulators – fluorescence, retest, confirmation (AID 2467); assay type: functional, cell-based
# [6] = Luminescence Cell-Based Dose Confirmation HTS to Identify Activators of 5'UTR Stem-Loop Driven Alpha-Synuclein mRNA Translation in H4 Neuroglioblastoma Cells. [Related pubchem assays: 1829 (Project Summary), 1814 (Primary HTS)]; assay type: functional
# [7] = Luminescence Cell-Based Dose Response HTS to Identify Activators of Luciferase Translation or Activity in H4 […] Cells. [Related pubchem assays: 1829 (Project Summary), 1814 (Primary HTS)]; assay type: functional
# H4 = test: Luminescence Cell-Based Dose Response HTS to Identify Activators of 5'UTR Stem-Loop Driven Prion Protein mRNA Translation in H4 Neuroglioblastoma Cells. [Related pubchem assays: 1829 (Project Summary), 1814 (Primary HTS)]; assay type: functional; settings: Homo sapiens
# [8] = molecular target: T1, Calpain-2 catalytic subunit (Sus scrofa, UniProt P43367); test: m-calpain protease blockers, concentration series – biochemical, fluorogenic peptide substrate, dose response (AID 1420); assay type: functional
# T1 sequence (P43367 whole entry): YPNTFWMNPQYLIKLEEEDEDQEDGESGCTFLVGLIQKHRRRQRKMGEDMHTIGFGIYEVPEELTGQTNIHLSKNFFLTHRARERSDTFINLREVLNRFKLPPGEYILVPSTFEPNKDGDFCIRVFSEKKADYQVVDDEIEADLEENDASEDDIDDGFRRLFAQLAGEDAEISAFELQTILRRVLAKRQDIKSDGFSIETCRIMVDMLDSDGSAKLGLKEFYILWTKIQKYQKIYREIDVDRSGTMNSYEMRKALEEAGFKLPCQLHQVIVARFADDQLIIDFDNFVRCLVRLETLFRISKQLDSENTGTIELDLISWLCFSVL
# [9] = molecular target: Luciferin 4-monooxygenase (Photinus pyralis, UniProt P08659); test: inhibition of purified Photinus pyralis luciferase – biochemical, luminescence, dose response (AID 1891)
# [10] = Luminescence Cell-Based Dose Confirmation HTS to Identify Inhibitors of Platelet Dense Granule Release. [Related pubchem assays: 1663 (Primary HTS), 1678 (Summary of Project)]; assay type: functional
# Genome polyprotein = Genome polyprotein (dengue virus type 2, UniProt P29990); test: flavivirus cap methylation enzyme inhibition – biochemical, confirmation dose response, primary screen (AID 588689); assay type: functional
# [11] = Trypanosoma cruzi growth suppression in host cells – NIH3T3 host cells, beta-gal luminescence, confirmation (AID 2044); assay type: functional, cell-based;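 further: intracellular parasites grown in NIH/3T3 mouse fibroblasts as host cells; luminescent beta-galactosidase reporter signal from transgenic T. cruzi replicating inside host cells; inhibitors lower the luminescence signal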
# [12] = NIH3T3 cell viability loss – ATP luminescence, mouse fibroblasts, counter-screen, dose response (AID 2010); assay type: functional, cell-based;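 further: cells exposed to compound for about 90 hours before reading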
# Large T antigen = Large T antigen (Simian virus 40, UniProt P03070); assay type: functional, Betapolyomavirus macacae;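 further: Confirmatory-stage PubChem screen for compounds that inhibit SV40 T antigen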
# [13] = viability of uninfected HEp-2 cells – cell-based, HTS, cytotoxicity control for RSV inhibitor project, dose response (AID 2410); assay type: functional; settings: human respiratory syncytial virus
# [14] = molecular target: T2, Rac GTPase-activating protein 1 (Homo sapiens, UniProt Q9H0H5); test: blockers of MgcRacGAP-driven Rac1 GTP hydrolysis – biochemical, ADP Hunter fluorescence, primary and confirmatory, confirmation (AID 624330); assay type: functional
# T2 sequence (Q9H0H5 whole entry): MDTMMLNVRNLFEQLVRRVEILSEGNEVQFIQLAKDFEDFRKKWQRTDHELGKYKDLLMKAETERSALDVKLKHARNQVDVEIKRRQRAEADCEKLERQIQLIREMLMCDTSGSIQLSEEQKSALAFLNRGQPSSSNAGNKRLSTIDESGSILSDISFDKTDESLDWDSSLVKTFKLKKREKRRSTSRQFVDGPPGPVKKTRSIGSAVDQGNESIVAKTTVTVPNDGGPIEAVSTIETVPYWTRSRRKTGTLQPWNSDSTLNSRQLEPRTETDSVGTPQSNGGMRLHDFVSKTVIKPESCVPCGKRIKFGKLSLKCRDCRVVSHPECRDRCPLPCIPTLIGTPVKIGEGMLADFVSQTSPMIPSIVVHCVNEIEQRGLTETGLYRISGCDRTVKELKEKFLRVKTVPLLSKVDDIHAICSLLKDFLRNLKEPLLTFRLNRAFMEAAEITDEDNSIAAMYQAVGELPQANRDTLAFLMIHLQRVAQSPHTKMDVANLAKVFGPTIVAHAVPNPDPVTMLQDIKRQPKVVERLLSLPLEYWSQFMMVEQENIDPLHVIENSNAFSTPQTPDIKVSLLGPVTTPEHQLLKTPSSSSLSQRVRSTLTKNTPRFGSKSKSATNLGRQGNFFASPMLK
# Cytochrome P450 3A4 = Cytochrome P450 3A4 (Homo sapiens, UniProt P08684);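 further: CYP3A4 tested as one member of a cytochrome P450 panel screen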
# INS1 = test: INS-1E survival protection against cytokine death – cell-based, luminescence, retest, dose response (AID 449756); assay type: functional; settings: Rattus norvegicus;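 further: cell death triggered by IL-1 beta plus TNF-alpha plus IFN-gamma mixture; protective hits raise ATP signal compared with cytokine alone wells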
# [15] = THP-1 cell cytotoxicity, dose response, cytotoxicity control for non-replicating M. tuberculosis project (AID 489025); assay type: functional
# FAD-linked sulfhydryl oxidase ALR, sequence (P55789 whole entry): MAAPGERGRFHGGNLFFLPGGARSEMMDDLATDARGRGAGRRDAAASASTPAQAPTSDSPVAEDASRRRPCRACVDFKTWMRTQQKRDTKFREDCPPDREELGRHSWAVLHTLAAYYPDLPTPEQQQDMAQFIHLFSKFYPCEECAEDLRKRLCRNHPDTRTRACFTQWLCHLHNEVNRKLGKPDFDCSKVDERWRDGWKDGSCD
# Cytochrome P450 2C9, sequence (P11712 whole entry): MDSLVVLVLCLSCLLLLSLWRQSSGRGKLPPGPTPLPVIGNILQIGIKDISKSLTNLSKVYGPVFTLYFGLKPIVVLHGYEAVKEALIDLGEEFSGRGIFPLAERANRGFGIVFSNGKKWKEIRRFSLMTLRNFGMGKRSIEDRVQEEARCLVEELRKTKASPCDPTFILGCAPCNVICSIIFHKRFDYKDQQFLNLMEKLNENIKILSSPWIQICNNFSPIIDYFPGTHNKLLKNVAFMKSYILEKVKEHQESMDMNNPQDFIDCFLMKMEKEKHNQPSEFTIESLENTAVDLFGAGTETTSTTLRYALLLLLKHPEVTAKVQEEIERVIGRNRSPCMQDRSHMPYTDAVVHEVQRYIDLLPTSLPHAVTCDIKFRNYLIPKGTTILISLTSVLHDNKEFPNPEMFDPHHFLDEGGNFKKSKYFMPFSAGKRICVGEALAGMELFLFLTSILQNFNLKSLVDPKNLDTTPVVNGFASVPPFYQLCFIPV
# Luciferin 4-monooxygenase, sequence (P08659 whole entry): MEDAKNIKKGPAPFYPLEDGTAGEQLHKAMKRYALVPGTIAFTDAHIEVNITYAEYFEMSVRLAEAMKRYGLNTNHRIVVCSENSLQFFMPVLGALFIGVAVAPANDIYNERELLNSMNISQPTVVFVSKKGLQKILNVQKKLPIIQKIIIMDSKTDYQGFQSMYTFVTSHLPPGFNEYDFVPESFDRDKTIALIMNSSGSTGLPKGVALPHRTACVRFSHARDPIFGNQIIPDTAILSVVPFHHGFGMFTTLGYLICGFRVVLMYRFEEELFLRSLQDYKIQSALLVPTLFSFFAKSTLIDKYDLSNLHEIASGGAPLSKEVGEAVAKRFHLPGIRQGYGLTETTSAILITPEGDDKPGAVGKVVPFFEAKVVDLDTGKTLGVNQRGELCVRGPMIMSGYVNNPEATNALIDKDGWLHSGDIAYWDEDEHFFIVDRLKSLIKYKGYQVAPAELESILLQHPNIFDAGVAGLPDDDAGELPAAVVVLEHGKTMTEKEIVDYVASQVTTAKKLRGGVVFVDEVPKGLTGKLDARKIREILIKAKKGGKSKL
# Large T antigen, sequence (P03070 whole entry): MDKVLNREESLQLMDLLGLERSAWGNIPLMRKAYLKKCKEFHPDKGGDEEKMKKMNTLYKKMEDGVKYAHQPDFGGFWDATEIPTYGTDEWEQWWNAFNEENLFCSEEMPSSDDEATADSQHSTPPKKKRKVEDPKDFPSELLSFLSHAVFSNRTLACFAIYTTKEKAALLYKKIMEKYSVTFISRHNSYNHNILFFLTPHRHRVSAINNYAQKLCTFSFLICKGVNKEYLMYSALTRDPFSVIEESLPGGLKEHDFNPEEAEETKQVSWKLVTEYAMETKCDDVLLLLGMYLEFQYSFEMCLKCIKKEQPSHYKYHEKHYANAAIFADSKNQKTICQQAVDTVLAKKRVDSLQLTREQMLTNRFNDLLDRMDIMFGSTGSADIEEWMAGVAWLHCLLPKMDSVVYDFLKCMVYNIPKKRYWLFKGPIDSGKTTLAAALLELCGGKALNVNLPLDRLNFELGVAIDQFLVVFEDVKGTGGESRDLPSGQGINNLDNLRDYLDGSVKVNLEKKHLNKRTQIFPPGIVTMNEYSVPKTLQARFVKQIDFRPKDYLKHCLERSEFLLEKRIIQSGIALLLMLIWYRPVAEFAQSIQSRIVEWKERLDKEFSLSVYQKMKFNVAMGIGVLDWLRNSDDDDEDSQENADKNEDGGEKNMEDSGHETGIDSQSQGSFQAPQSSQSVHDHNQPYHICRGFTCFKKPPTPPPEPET
# Genome polyprotein, sequence (P29990 2492-3391 limits assumed): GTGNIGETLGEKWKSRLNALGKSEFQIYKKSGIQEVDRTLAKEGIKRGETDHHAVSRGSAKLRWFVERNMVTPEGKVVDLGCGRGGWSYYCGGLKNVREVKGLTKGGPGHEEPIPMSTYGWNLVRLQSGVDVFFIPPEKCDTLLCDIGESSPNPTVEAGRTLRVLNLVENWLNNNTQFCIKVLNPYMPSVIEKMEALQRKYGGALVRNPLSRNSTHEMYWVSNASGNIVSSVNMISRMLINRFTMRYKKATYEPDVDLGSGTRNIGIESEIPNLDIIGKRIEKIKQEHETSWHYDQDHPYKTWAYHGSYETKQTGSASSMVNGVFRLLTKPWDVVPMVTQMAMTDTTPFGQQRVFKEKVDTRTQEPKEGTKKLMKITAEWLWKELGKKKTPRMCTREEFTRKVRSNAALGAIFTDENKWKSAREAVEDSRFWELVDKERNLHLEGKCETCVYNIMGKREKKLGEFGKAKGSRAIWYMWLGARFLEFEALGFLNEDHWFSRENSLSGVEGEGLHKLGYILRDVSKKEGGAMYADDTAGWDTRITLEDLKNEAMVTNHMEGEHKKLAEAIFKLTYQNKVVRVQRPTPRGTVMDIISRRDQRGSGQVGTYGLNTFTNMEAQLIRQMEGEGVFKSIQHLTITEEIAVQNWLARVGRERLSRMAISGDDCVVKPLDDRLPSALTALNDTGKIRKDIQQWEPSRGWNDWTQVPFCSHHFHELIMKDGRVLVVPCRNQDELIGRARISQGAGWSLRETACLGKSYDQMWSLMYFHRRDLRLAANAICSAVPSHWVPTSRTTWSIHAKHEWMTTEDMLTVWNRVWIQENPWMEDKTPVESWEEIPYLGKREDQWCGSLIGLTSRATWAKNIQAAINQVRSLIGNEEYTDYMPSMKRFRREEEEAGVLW
# Cytochrome P450 3A4, sequence (P08684 whole entry): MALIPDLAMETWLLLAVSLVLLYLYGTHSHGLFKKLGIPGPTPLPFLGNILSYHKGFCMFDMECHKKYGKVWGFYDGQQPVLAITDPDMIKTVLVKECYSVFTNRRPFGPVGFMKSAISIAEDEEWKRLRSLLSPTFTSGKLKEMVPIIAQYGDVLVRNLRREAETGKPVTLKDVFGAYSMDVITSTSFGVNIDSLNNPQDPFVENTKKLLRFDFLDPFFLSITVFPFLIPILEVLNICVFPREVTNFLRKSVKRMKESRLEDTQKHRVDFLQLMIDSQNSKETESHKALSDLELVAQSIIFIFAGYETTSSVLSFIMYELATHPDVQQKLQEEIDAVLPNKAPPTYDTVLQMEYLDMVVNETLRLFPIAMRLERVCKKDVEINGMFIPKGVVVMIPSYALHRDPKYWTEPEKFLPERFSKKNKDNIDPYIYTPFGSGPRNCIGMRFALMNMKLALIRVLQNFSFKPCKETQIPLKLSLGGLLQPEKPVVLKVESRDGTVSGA
compound,measurement,setting,value
COc1cccc(-c2nnc(S)n2Cc2ccco2)c1OC,AC50,[1],3.65 µM (active)
COc1ccccc1CNC(=O)CCN1C(=O)COc2ccc(C)cc21,AC50,Cytochrome P450 2C9,inconclusive
COC(=O)c1cn(C)c2ccc(S(=O)(=O)N3CCCCC3)cc2c1=O,EC50,cells [2],> 350 µM (not active)
same,EC50,cells [3],> 350 µM (not active)
COCCN(C(=O)CSc1nnc(-c2cccc(C)c2)n1C)c1c(N)n(Cc2ccccc2)c(=O)[nH]c1=O,EC50,[4],> 160 µM (inactive)
same,EC50,[5],> 38 µM (not active)
CCCCNC(=O)c1cc(-c2ccc(F)cc2)on1,EC50,[6],11.9 µM (active)
same,EC50,[7],24.3 µM (active)
same,EC50,cells [2],8.85 µM (active)
same,EC50,H4,13.1 µM (active)
same,EC50,cells [3],45 µM (active)
COc1cccc(-n2c(SCC(=O)OC(C)C)nnc2-c2cccnc2)c1,IC50,[8],> 50 µM (not active)
CCOc1ccc(NC(O)=C2C(=O)NC(=O)NC2=O)cc1,EC50,[9],1.42 µM (active)
same,EC50,[10],9.93 µM (active)
C=C(C)CC1Nc2ccccc2NC1CC(=C)C (stereo not drawn),AC50,[1],5.56 µM (active)
O=C(NCc1nc2ccccc2[nH]1)c1c(F)c(F)c(F)c(F)c1F,EC50,cells [2],> 350 µM (not active)
same,EC50,cells [3],> 350 µM (not active)
O=[N+]([O-])c1ccc(NCc2ccccc2)nc1,IC50,[8],34.1 µM (not active)
COc1ccc(Oc2nc(-c3ccccc3)ncc2S(=O)(=O)c2ccccc2)cc1,EC50,[9],> 112 µM (not active)
same,EC50,[10],> 112 µM (not active)
O=C(OCCCCN1C(=O)c2ccccc2C1=O)c1ccc(S(=O)(=O)N2CCCC2)cc1,EC50,[9],> 112 µM (not active)
same,EC50,[10],> 112 µM (not active)
CCC(C(=O)O)N1C(=O)/C(=C/C(C)=C/c2ccccc2)SC1=S (stereo not drawn),IC50,Genome polyprotein,37.8 µM (active)
Cc1c(N=C(S)NNC(=O)CCC(=O)O)c(=O)n(-c2ccccc2)n1C,EC50,[9],> 112 µM (not active)
same,EC50,[10],> 112 µM (not active)
O=C(c1ccco1)N1CCN(Cc2nc(-c3cccs3)no2)CC1,EC50,[9],> 112 µM (not active)
same,EC50,[10],> 112 µM (not active)
S=C(NCc1ccc(Cl)cc1)NC1CCN(Cc2ccccc2)CC1,EC50,[11],2.86 µM (active)
same,IC50,[8],18.6 µM (not active)
same,EC50,[12],> 30 µM (not active)
Oc1nc2cc(NCc3ccc(F)cc3)ccc2[nH]1,IC50,Large T antigen,13.2 µM (active)
Cc1ccc(CN2[C@@H](CC(C)C)COCCS2(=O)=O)cc1,EC50,cells [2],> 350 µM (not active)
same,EC50,cells [3],72.7 µM (active)
Cc1ccc(S(=O)(=O)Nc2ccccc2C=O)cc1,AC50,Cytochrome P450 2C9,inconclusive
Cn1c(N)c(C(=O)COC(=O)c2ncc(Cl)c(Cl)c2Cl)c(=O)n(C)c1=O,IC50,[8],9.79 µM (active)
CC1=NOC(=O)/C1=C\c1ccc(-c2ccc(Br)cc2C(=O)O)o1,IC50,Genome polyprotein,20.1 µM (active)
O=C(CCCc1ccccc1)Nc1nnc(C(F)(F)F)s1,EC50,[9],> 112 µM (not active)
same,EC50,[10],> 112 µM (not active)
CCCOC(=O)Nc1ccc(C(N)=O)cc1,EC50,[9],> 112 µM (not active)
same,EC50,[10],> 112 µM (not active)
COc1ccccc1C(=O)Oc1ccccc1C(=O)Nc1ccccc1,EC50,cells [2],> 350 µM (not active)
same,EC50,cells [3],16.1 µM (active)
CC(C)(C)c1ccc(C(=O)Nc2cccc([N+](=O)[O-])c2)cc1,CC50,[13],5.38 µM (active)
same,IC50,[8],2.13 µM (not active)
O=C(CNCc1ccco1)Nc1ccc(N2CCCCCC2)cc1,AC50,[1],0.224 µM (active)
same,IC50,[14],84.4 µM (active)
CC1(C)C2CCC1(C)C(OCC[N+](C)(C)CC(=O)OC1CCCCC1)C2 (stereo not drawn),EC50,[4],> 150 µM (inactive)
same,EC50,[5],0.743 µM (active)
COc1ccccc1NC(=O)c1sc2ncn(Cc3ccccc3C)c(=O)c2c1C,AC50,Cytochrome P450 2C9,inconclusive
CCCCc1nc2sc3c(O)ncnc3c2c2c1CCCC2,EC50,[9],> 112 µM (not active)
same,EC50,[10],> 112 µM (not active)
Cc1cc(C)nc(Nc2n[nH]c(COc3cccc4ccccc34)n2)n1,AC50,Cytochrome P450 3A4,2.24 µM (inconclusive)
same,AC50,Cytochrome P450 2C9,inconclusive
COc1cccc(OC)c1C(=O)Nc1ccc(N2CCCCC2)cc1,AC50,[1],7.85 µM (active)
Nc1cc(S(=O)(=O)N2CCCCC2)ccc1Oc1ccccc1,IC50,[8],20.8 µM (not active)
CC(=O)c1cccc(NC(=O)CSC(=O)c2ccccc2)c1,EC50,cells [2],> 350 µM (not active)
same,EC50,cells [3],> 350 µM (not active)
Cc1ccc(Nc2c3c(nc4ccccc24)CCC3)cc1,EC50,cells [2],> 350 µM (not active)
same,EC50,cells [3],> 350 µM (not active)
same,AC50,INS1,8.95 µM (active)
CCCCN1C(=O)NC(=O)/C(=C(\C)NCCc2ccccc2)C1=O,IC50,[8],17.7 µM (not active)
CCCn1c(CCC(=O)O)ccc1-c1cccs1,AC50,[1],8.5 µM (active)
Nc1ccc2oc3ccc(N)cc3c(=O)c2c1,AC50,[1],1.07 µM (active)
C=CCOc1ccc(CNc2ccc3[nH]c(O)nc3c2)cc1OCC,IC50,Large T antigen,20.5 µM (active)
O=C(CSCc1ccco1)c1cccs1,EC50,[9],> 112 µM (not active)
same,EC50,[10],> 112 µM (not active)
O=C1CC(SC(=NCc2ccc3c(c2)OCO3)Nc2ccccc2)C(=O)N1c1ccccc1 (stereo not drawn),IC50,[8],> 50 µM (not active)
CC(C)NC(=O)c1ccc(-c2cccc(C(F)(F)F)c2)o1,AC50,Cytochrome P450 2C9,inconclusive
Cc1ccc(-c2ccc(/C=N/NC(=O)CN3CCCC3)o2)cc1Cl,CC50,[15],37.8 µM (active)
COc1cc(/C=N/NC(=O)c2ccncc2)ccc1O,IC50,Large T antigen,6.8 µM (active)
O=C(COc1ccccc1[N+](=O)[O-])N/N=C/c1ccc(O)cc1,IC50,Large T antigen,9.26 µM (active)
same,IC50,[14],80.8 µM (active)
O/N=C(\c1ccc2c(c1)OCCO2)C1CCCCC1,IC50,[8],25.1 µM (not active)
O=C(N/N=C\c1ccccc1OCc1ccccc1)c1ccco1,CC50,[15],39.6 µM (active)
Sc1nncn1/N=C/c1cccc(Oc2ccccc2)c1,AC50,[1],2.09 µM (active)
O=c1c(-c2ccc(O)cc2)coc2cc(O[C@@H]3O[C@H](CO)[C@@H](O)[C@H](O)[C@H]3O)ccc12 [DAIDZIN],IC50,Large T antigen,> 100 µM (active)
C1=Cc2ccccc2Nc2ccccc21 [IMINOSTILBENE],IC50,Large T antigen,14.3 µM (active)
same,IC50,[14],14.9 µM (active)
